Key:
LD50 in a mouse = conditions: in vivo, read-out: dosage reaching the LD50 limit
Description: The upper limit of the amount of the composition of the present invention will depend upon how the extract is made and may be determined by the levels at which toxicity or irritation becomes an issue. Thus, for surface cleansers, very high concentrations can be employed, whereas for skin cleansers, oral care or other products used for direct contact with humans or animals, lower concentrations will be desirable to avoid irritation or toxicity issues. […] Use of the term, “safe amount” herein refers to concentrations which are sufficiently below the above-mentioned amounts to avoid toxic effects in humans or animals.

[1] = system: a variety of common bacteria; test: bactericidal amounts for common bacteria; format: cell-based
Description: The composition of the present invention is preferably used in amounts that deliver at least about 2 ppm of anemonin, protoanemonin, diterpenoid alkaloids, or combinations thereof, more preferably, at least about 5 ppm of anemonin, protoanemonin, diterpenoid alkaloids, or combinations thereof, and most preferably at least about 15 ppm of anemonin, protoanemonin, diterpenoid alkaloids, or combinations thereof.

O=C1C=CC2(CCC23C=CC(=O)O3)O1 (stereo not drawn) [anemonin]
LD50 (LD50 in a mouse): 150 mg/kg

C=C1C=CC(=O)O1 [protoanemonin]
LD50 (LD50 in a mouse): 190 mg/kg
amount that is generally bactericidal [1]: 25-200 ppm

— patent publication US6951833B2, “Anti-microbial compositions” (priority 2002, dated 2005)
